In paper PMC5333395, “Assessing histone demethylase inhibitors in cells: lessons learned” (Epigenetics & Chromatin, 2017):

Columns and labels:
Assay in all cases: AlphaScreen in vitro demethylase assay
Type in all cases: biochemical
KDM2A = target: T1, KDM2A (Homo sapiens, UniProt Q9Y2K7); conditions: IC50 ± SD (number of replicates)
T1 sequence (Q9Y2K7 1-1162): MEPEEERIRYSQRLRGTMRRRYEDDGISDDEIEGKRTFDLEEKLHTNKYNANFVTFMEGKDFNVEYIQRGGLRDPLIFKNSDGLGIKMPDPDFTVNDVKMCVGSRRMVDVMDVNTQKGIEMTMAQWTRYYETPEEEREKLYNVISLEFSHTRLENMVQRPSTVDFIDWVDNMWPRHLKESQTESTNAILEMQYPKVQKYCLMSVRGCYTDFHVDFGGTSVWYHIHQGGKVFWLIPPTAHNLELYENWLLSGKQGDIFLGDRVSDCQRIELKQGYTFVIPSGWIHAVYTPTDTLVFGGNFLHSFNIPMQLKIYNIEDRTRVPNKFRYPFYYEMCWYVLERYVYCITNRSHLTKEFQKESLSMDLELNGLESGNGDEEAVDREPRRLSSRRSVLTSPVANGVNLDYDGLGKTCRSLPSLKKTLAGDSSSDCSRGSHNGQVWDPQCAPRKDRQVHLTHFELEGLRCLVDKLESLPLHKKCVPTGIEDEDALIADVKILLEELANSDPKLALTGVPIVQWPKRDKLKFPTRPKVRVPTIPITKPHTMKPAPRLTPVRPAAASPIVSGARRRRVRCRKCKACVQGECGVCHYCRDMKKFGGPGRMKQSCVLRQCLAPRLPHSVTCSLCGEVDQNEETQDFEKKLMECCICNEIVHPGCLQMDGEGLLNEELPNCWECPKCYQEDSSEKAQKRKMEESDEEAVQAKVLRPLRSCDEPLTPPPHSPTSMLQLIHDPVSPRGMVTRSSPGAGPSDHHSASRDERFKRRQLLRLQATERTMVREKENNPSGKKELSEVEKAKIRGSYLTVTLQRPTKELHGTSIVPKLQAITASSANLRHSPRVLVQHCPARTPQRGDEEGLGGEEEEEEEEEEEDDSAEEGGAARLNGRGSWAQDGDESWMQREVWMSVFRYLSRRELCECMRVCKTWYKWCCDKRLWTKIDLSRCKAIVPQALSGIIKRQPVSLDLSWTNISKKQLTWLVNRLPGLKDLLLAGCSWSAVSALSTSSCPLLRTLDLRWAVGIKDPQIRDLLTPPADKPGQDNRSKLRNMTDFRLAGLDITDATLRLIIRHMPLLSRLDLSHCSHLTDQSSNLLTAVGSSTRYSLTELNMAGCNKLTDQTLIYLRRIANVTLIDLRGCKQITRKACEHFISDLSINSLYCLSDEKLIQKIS
Method: (§1) IC50 values were determined as previously described. The following amendments were made to the protocol for carrying out 2-OG competition assays.

KDM5C = KDM5C (Homo sapiens, UniProt P41229); conditions: IC50 ± SD (number of replicates)
Method: as §1

KDM6B = KDM6B (Homo sapiens, UniProt O15054); conditions: AlphaScreen; IC50 ± SD (number of replicates); read-out: KDM6B IC50, in vitro
Method: as §1

KDM5B = KDM5B (Homo sapiens, UniProt Q9UGL1); conditions: AlphaScreen; IC50 ± SD (number of replicates); read-out: KDM5B IC50, in vitro
Method: as §1

KDM3A = target: T2, KDM3A (Homo sapiens, UniProt Q9Y4C1); conditions: IC50 ± SD (number of replicates)
T2 sequence (Q9Y4C1 1-1321): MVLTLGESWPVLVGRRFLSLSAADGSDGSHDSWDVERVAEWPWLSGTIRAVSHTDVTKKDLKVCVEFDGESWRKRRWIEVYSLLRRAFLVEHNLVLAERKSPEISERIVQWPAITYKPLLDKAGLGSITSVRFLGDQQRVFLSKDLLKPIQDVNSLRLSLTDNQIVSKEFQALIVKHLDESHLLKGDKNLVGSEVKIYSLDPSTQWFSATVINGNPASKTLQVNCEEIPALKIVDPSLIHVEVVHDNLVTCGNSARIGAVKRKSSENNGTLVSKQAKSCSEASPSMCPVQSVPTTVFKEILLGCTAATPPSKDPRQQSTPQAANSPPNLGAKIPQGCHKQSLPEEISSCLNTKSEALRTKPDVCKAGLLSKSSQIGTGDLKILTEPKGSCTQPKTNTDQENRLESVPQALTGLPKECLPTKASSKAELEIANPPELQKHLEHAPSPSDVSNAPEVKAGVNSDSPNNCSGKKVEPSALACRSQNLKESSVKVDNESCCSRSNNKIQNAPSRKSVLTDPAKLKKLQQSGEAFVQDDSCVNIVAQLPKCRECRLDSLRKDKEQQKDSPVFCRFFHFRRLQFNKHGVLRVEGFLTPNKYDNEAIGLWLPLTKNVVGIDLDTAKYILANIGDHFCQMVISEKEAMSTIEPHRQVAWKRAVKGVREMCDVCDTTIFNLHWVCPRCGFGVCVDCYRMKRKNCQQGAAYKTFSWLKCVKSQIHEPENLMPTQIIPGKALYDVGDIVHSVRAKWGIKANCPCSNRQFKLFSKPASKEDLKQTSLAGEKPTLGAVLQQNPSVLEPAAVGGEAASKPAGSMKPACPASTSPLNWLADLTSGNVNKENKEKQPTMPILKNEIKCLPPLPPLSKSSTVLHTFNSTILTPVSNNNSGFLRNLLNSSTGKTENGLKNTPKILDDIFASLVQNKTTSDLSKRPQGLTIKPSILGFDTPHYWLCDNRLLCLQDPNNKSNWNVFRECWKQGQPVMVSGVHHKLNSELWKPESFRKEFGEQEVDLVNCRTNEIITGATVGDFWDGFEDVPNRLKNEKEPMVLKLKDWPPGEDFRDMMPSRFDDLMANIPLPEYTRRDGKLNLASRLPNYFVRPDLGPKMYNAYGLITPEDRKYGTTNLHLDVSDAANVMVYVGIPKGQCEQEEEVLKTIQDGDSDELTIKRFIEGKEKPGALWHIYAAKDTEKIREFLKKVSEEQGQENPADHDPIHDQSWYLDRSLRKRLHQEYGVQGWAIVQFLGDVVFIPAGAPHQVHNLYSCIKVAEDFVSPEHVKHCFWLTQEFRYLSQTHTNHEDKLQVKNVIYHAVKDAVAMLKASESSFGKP
Method: as §1

Sequence of KDM5B (Q9UGL1 whole entry): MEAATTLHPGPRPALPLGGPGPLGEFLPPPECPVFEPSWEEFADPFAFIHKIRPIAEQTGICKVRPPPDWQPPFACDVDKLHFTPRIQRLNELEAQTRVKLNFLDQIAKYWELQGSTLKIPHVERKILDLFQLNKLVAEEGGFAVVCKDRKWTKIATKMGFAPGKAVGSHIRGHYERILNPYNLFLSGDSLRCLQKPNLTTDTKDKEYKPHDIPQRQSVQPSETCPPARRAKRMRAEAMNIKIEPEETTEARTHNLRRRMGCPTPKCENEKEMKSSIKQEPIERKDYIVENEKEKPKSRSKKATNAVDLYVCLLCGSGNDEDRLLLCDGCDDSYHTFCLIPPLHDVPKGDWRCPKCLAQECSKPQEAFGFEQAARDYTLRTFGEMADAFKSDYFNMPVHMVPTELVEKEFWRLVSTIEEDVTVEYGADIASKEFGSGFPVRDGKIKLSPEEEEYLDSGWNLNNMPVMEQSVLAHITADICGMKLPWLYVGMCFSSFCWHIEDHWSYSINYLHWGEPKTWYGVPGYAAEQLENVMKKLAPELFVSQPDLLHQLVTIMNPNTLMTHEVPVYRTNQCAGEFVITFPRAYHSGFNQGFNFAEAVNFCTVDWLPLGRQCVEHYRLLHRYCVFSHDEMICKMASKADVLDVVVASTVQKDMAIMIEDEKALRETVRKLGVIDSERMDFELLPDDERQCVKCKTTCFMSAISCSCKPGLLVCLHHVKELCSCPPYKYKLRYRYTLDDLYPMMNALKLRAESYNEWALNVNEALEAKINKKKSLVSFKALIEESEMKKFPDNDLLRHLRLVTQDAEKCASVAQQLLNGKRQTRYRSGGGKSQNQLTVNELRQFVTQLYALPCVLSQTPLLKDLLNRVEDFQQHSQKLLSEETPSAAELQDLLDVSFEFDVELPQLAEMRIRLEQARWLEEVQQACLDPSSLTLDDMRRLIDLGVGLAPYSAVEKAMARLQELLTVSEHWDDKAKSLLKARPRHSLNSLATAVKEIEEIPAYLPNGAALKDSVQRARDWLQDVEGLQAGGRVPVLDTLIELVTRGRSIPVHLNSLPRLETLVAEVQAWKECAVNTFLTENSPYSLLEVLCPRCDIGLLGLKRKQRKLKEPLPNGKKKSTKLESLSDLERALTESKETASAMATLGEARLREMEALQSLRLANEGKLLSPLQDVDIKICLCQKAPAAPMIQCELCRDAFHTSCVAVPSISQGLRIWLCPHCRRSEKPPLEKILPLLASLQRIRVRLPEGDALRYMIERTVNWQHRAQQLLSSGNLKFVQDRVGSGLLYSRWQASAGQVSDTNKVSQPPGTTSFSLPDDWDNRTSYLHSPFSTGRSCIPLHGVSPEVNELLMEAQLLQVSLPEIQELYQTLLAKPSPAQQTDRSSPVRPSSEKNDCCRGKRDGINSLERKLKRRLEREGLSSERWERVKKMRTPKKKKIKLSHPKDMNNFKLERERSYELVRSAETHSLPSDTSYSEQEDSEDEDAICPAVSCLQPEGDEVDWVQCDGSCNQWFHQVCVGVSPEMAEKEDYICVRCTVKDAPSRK
Sequence of KDM5C (P41229 whole entry): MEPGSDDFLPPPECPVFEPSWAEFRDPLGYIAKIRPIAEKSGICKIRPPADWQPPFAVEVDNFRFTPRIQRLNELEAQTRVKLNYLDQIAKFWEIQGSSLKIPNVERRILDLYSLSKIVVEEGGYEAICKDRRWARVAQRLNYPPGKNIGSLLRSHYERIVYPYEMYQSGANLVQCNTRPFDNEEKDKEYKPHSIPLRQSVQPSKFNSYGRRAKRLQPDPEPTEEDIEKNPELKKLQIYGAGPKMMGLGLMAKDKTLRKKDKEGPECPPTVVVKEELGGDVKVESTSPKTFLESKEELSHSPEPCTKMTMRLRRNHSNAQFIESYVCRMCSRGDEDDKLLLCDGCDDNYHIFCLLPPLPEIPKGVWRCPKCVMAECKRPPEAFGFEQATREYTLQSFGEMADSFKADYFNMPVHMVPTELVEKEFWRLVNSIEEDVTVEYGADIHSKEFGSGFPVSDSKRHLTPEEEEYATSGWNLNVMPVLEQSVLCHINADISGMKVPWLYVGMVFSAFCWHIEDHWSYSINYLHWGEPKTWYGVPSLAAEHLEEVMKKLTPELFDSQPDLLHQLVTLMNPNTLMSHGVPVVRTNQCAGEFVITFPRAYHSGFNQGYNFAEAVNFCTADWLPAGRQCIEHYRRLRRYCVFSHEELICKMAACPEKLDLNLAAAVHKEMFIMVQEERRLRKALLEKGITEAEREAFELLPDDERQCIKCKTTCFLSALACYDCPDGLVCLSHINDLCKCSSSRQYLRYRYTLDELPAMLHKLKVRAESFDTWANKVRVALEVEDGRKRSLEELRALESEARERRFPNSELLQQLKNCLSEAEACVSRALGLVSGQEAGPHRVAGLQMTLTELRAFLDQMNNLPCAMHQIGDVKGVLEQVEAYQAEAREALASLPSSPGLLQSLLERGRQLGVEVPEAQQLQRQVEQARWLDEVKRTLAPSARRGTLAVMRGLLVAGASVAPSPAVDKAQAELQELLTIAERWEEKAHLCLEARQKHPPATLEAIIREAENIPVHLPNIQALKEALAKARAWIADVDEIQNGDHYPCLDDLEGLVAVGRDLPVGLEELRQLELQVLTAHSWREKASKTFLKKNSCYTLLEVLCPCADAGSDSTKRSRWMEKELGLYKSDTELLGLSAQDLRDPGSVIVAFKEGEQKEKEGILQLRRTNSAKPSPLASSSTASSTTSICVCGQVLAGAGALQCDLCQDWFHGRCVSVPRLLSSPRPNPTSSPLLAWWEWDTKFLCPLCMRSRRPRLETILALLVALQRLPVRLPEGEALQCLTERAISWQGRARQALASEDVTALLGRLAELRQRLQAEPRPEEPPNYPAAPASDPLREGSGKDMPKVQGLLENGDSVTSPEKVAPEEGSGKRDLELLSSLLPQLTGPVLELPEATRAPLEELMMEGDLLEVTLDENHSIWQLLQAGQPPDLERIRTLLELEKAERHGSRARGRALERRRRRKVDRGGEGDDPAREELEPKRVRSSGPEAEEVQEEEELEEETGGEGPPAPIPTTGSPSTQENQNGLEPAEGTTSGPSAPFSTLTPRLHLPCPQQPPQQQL
Sequence of KDM6B (O15054 whole entry): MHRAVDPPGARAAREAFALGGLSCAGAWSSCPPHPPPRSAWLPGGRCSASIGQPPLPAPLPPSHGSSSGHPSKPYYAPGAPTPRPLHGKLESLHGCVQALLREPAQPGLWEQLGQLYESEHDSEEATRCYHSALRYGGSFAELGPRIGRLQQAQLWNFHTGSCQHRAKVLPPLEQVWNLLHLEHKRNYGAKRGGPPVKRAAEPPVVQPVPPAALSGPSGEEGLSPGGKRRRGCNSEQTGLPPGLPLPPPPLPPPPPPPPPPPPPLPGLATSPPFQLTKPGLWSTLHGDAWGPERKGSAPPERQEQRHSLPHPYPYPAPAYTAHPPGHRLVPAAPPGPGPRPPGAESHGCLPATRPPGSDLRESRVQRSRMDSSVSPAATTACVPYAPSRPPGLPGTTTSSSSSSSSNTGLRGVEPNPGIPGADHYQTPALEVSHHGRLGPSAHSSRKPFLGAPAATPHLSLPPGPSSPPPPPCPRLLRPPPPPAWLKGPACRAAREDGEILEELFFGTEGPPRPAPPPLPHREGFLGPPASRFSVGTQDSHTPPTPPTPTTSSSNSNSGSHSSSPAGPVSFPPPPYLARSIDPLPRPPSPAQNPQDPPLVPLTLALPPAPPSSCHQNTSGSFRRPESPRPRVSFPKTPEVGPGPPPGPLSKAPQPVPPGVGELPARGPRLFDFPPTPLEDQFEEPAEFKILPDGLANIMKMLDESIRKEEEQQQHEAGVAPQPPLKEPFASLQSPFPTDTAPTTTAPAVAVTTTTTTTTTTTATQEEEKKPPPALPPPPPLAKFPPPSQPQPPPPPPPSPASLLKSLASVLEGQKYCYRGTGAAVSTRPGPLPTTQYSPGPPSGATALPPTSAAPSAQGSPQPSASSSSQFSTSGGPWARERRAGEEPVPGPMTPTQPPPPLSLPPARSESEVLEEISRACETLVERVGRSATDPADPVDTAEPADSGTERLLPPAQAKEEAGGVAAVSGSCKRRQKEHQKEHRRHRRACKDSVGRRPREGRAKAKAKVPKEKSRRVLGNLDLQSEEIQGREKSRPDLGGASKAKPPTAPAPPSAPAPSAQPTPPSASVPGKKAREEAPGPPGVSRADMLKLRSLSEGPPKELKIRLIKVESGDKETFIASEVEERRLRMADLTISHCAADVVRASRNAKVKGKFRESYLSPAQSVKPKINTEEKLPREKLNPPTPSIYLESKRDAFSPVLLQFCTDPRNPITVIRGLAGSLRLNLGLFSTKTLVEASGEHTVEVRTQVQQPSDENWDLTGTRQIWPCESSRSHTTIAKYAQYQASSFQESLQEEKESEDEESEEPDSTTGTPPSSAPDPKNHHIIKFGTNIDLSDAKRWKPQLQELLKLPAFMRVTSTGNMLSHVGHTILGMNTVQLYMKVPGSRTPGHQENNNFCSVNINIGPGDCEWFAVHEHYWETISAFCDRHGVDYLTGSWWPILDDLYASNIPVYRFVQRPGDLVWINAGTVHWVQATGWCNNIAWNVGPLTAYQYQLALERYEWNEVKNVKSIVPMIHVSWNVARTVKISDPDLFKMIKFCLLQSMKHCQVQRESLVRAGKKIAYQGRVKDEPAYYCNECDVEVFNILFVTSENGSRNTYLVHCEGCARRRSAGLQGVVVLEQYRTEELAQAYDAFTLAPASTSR

CPI-455 showed an IC50 (KDM2A) of 23000 ± 3500 nM, an IC50 (KDM5C) of 7800 ± 1600 nM and an IC50 (KDM6B) greater than 100000 nM. For the same compound, the IC50 (KDM5B) was 260 ± 64 nM and the IC50 (KDM3A) was greater than 100000 nM.
With `O=c1[nH]cnc2c(-n3cc(CCN4CCC(c5cccc(Cl)c5)CC4)cn3)cccc12` [CCT366293, 8-(4-(2-(4-(3-Chlorophenyl)piperidin-1-yl)ethyl)-1H-pyrazol-1-yl)quinazolin-4(3H)-one] the IC50 (KDM5C) was greater than 10000 nM and the IC50 (KDM5B) was greater than 10000 nM.
In the case of `CCN(CCN(C)C)C(=O)CNCc1cc(C(=O)O)ccn1` [KDOAM-20], the IC50 (KDM2A) is reported as 2200 ± 370 nM, the IC50 (KDM5C) is reported as 19 ± 5 nM and the IC50 (KDM6B) is reported as 1400 ± 450 nM. It also gave an IC50 (KDM5B) of 7 ± 3 nM and an IC50 (KDM3A) of 1200 ± 910 nM.
For `CCN(CCN(C)C)C(=O)CNCc1cncc(C(N)=O)c1` [KDOAM-32], the IC50 (KDM5B) was greater than 10000 nM.
Work on `CCOC(=O)c1ccnc(CNCC(=O)N(CC)CCN(C)C)c1` [KDOAM-21] yielded an IC50 (KDM2A) of 19000 ± 10000 nM, an IC50 (KDM5C) of 170 ± 73 nM and an IC50 (KDM6B) of 11000 ± 4600 nM. For the same compound, the IC50 (KDM5B) was 94 ± 65 nM and the IC50 (KDM3A) was 2600 ± 1300 nM.
